Laboratory results as given in BindingDB's records for doi:10.1021/np500581m (Institute of Microbial Chemistry (Bikaken), 2015).

Assay: Induction of p53-dependent growth suppression of human LNZTA3 cells after 72 hrs by MTT assay

| Structure (SMILES) | IC50 |
| --- | --- |
| CCCCC[C@H](O[C@@H]1O[C@@H]([C@H](O)CO)[C@H](O)[C@H]1O)c1c(O)cc2c(c1O)C(=O)c1c(O)cc(O)cc1C2=O | 6.2 µM |
| CCCCC[C@H](O[C@@H]1O[C@@H]([C@H](O)CO)[C@H](O)[C@H]1OC(C)=O)c1c(O)cc2c(c1O)C(=O)c1c(O)cc(O)cc1C2=O | 6.2 µM |
